Measurements: patent US6939992B2, “Polymorphic forms of sertraline hydrochloride” (Ciba Specialty Chemicals Corporation, priority 1999, dated 2005)
Structures can show the parent of a compound that is named as a salt.

How the values were obtained:
[1] = Thermal stability / transformation on heating in a DSC apparatus; assay type: physicochemical
Procedure: The crystalline polymorph CSC2 upon heating is transformed into form V at temperatures of about >120° C., whereupon a second transformation takes place into form III at temperatures of about >160° C. (experiment performed in a DSC apparatus with heating rate of 20° C./minute).

[2] = Solubility of the polymorphic form; assay type: physicochemical
[3] = disclosed in U.S. Pat. No. 5,248,699; cited from earlier work
[4] = DSC apparatus, heating rate of 20° C./minute

| Structure (SMILES) | thermal stability [1] | temperature of second transformation into form III upon heating [1, 4] [°C] | temperature of transformation into form V upon heating [1, 4] [°C] | solubility [2] | stability compared with the other crystalline forms of sertraline hydrochloride [3] |
| --- | --- | --- | --- | --- | --- |
| CN[C@H]1CC[C@@H](c2ccc(Cl)c(Cl)c2)c2ccccc21 [CSC2, (1S-cis)-4-(3,4-dichlorophenyl)-1,2,3,4-tetrahydro-N-methyl-1-naphthalenamine hydrochloride] | good | > 160 | > 120 | high |  |
| CN[C@H]1CC[C@@H](c2ccc(Cl)c(Cl)c2)c2ccccc21 [form I, sertraline hydrochloride] |  |  |  |  | greatest stability |
